Source: ChEMBL document CHEMBL4130348, “Structure-activity relationship investigation for benzonaphthyridinone derivatives as novel potent Bruton's tyrosine kinase (BTK) irreversible inhibitors” (Eur J Med Chem, 2017)

What was measured:
[1] = target: T1, Tyrosine-protein kinase JAK3 (Homo sapiens, UniProt P52333); assay: Inhibition of recombinant GST-tagged human JAK3 expressed in baculovirus expression system using poly (4:1 Glu, Tyr) as substrate preincubated for 1 hr followed by substrate addition measured after 1 hr by ADP-glo assay
T1 sequence (P52333 whole entry): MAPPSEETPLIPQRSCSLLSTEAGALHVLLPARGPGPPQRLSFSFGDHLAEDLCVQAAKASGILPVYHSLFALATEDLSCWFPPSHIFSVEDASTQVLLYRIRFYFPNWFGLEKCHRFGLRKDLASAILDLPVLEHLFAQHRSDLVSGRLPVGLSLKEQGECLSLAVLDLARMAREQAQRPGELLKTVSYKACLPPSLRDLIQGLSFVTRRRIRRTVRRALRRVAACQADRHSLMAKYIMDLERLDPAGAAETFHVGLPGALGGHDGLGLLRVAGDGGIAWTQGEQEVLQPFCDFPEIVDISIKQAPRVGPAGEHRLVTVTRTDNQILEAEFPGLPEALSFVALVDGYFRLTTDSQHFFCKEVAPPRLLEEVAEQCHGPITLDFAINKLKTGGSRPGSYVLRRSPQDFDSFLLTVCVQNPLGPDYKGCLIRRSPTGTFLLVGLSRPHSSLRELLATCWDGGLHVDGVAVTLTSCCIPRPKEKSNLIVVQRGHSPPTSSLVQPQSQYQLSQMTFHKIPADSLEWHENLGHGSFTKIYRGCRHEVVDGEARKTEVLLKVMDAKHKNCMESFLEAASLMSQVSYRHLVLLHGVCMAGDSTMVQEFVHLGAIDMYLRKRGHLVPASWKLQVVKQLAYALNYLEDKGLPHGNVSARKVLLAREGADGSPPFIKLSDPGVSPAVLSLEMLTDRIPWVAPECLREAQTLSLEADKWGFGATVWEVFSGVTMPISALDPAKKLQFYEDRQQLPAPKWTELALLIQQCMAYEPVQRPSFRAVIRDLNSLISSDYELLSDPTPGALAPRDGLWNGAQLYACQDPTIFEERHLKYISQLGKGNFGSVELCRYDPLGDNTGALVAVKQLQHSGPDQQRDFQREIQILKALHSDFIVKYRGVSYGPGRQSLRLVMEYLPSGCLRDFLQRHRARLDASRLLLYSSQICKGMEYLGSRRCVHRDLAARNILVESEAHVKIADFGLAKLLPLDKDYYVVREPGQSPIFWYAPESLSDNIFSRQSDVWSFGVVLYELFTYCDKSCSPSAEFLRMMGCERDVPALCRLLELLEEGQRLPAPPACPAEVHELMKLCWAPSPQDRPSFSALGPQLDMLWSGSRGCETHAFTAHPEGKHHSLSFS

[2] = Antiproliferative activity against mouse BA/F3 cells after 72 hrs by CellTiter-Glo assay; assay type: cell-based, BaF3
[3] = target: Epidermal growth factor receptor (Homo sapiens) (UniProt P00533); assay: Inhibition of TEL-fused EGFR (unknown origin) expressed in mouse BA/F3 cells after 72 hrs by CellTiter-Glo assay; assay type: cell-based
[4] = system: Epidermal growth factor receptor (Homo sapiens), P00533 [T790M]; assay: Inhibition of TEL-fused EGFR T790M mutant (unknown origin) expressed in mouse BA/F3 cells after 72 hrs by CellTiter-Glo assay; assay type: cell-based
[5] = system: Epidermal growth factor receptor (Homo sapiens), P00533 [L858R,T790M]; assay: Inhibition of TEL-fused EGFR T790M/L858R mutant (unknown origin) expressed in mouse BA/F3 cells after 72 hrs by CellTiter-Glo assay; assay type: cell-based
[6] = target: Tyrosine-protein kinase JAK1 (Homo sapiens) (UniProt P23458); assay: Inhibition of TEL-fused JAK1 (unknown origin) expressed in mouse BA/F3 cells after 72 hrs by CellTiter-Glo assay; assay type: cell-based
[7] = system: HCT-116; assay: Antiproliferative activity against human HCT116 cells after 72 hrs by CellTiter-Glo assay; assay type: functional; settings: HCT-116, 72 h
[8] = system: A-431; assay: Antiproliferative activity against human A431 cells after 72 hrs by CellTiter-Glo assay; assay type: functional; settings: A-431, 72 h
[9] = system: NCI-H460; assay: Antiproliferative activity against human NCI-H460 cells after 72 hrs by CellTiter-Glo assay; assay type: functional; settings: NCI-H460, 72 h
[10] = system: NCI-H1975; assay: Antiproliferative activity against human NCI-H1975 cells after 72 hrs by CellTiter-Glo assay; assay type: functional; settings: NCI-H1975, 72 h
[11] = system: DU-145; assay: Antiproliferative activity against human DU145 cells after 72 hrs by CellTiter-Glo assay; assay type: functional; settings: DU-145, 72 h
[12] = Antiproliferative activity against human RV1 cells after 72 hrs by CellTiter-Glo assay; assay type: functional; settings: RV-1, 72 h
[13] = system: SU-DHL-2; assay: Antiproliferative activity against human SUDHL2 cells after 72 hrs by CellTiter-Glo assay; assay type: functional; settings: SU-DHL-2, 72 h
[14] = system: U2932; assay: Antiproliferative activity against human U2932 cells after 72 hrs by CellTiter-Glo assay; assay type: functional; settings: U2932, 72 h
[15] = system: Ramos; assay: Antiproliferative activity against human Ramos cells after 72 hrs by CellTiter-Glo assay; assay type: functional
[16] = system: NAMALVA; assay: Antiproliferative activity against human NAMALWA cells after 72 hrs by CellTiter-Glo assay; assay type: functional
[17] = system: NALM-6; assay: Antiproliferative activity against human NALM6 cells after 72 hrs by CellTiter-Glo assay; assay type: functional; settings: NALM-6, 72 h
[18] = Antiproliferative activity against human PF138 cells after 72 hrs by CellTiter-Glo assay; assay type: functional
[19] = system: MOLM-14; assay: Antiproliferative activity against human MOLM14 cells after 72 hrs by CellTiter-Glo assay; assay type: functional; settings: MOLM-14, 72 h
[20] = Antiproliferative activity against human MOLM16 cells after 72 hrs by CellTiter-Glo assay; assay type: functional; settings: MOLM16, 72 h
[21] = system: HEL; assay: Antiproliferative activity against human HEL cells after 72 hrs by CellTiter-Glo assay; assay type: functional
[22] = system: SKM-1; assay: Antiproliferative activity against human SKM1 cells after 72 hrs by CellTiter-Glo assay; assay type: functional; settings: SKM-1, 72 h
[23] = system: NB-4; assay: Antiproliferative activity against human NB4 cells after 72 hrs by CellTiter-Glo assay; assay type: functional; settings: NB-4, 72 h
[24] = system: HL-60; assay: Antiproliferative activity against human HL60 cells after 72 hrs by CellTiter-Glo assay; assay type: functional; settings: HL-60, 72 h
[25] = system: CMK; assay: Antiproliferative activity against human CMK cells after 72 hrs by CellTiter-Glo assay; assay type: functional
[26] = system: NOMO-1; assay: Antiproliferative activity against human NOMO1 cells after 72 hrs by CellTiter-Glo assay; assay type: functional; settings: NOMO-1, 72 h
[27] = system: K562; assay: Antiproliferative activity against human K562 cells after 72 hrs by CellTiter-Glo assay; assay type: functional; settings: K562, 72 h
[28] = system: Rec1; assay: Antiproliferative activity against human Rec1 cells after 72 hrs by CellTiter-Glo assay; assay type: functional; settings: Rec1, 72 h
[29] = cells; assay type: functional; settings: Homo sapiens, CLL cell, 72 h
[30] = cells; assay type: functional; settings: Homo sapiens, CLL cell, 72 h; remark: listed apart in the source
[31] = cells; assay type: functional; settings: Homo sapiens, CLL cell, 72 h; remark: listed apart in the source

Tyrosine-protein kinase JAK1 (Homo sapiens), sequence (P23458 whole entry, the tested form may be a part): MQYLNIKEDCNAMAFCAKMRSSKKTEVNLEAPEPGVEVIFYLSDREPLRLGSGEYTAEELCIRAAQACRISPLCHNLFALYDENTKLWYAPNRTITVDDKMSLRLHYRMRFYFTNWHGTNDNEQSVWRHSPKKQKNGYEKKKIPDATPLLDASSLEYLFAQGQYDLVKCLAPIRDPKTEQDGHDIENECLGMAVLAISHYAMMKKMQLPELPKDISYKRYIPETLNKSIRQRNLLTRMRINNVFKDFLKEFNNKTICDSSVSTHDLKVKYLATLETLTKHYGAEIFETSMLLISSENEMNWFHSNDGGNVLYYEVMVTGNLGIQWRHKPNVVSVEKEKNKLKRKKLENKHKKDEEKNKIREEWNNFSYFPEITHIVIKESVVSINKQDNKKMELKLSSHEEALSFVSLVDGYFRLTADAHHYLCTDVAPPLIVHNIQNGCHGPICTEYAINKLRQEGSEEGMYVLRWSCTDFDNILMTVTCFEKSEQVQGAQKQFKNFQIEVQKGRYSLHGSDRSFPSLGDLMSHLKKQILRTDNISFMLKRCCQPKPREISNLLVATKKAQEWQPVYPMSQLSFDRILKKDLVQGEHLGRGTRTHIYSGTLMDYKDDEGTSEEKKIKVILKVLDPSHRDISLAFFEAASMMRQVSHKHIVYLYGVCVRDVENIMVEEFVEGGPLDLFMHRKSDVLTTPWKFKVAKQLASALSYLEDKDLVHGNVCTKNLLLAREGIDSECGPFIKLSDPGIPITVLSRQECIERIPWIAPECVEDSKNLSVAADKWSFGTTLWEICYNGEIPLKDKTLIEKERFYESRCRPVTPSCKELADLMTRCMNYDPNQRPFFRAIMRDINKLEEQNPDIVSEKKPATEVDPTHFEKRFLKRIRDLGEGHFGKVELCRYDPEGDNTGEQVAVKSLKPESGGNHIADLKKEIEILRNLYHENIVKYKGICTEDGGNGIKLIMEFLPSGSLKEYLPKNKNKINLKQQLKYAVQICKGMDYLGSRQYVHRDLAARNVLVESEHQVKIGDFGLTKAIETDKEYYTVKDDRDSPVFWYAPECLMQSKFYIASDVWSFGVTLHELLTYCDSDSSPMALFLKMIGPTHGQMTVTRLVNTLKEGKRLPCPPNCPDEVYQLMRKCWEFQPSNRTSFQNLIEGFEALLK
Epidermal growth factor receptor (Homo sapiens), P00533 [T790M], sequence (P00533 whole entry T790M, the tested form may be a part): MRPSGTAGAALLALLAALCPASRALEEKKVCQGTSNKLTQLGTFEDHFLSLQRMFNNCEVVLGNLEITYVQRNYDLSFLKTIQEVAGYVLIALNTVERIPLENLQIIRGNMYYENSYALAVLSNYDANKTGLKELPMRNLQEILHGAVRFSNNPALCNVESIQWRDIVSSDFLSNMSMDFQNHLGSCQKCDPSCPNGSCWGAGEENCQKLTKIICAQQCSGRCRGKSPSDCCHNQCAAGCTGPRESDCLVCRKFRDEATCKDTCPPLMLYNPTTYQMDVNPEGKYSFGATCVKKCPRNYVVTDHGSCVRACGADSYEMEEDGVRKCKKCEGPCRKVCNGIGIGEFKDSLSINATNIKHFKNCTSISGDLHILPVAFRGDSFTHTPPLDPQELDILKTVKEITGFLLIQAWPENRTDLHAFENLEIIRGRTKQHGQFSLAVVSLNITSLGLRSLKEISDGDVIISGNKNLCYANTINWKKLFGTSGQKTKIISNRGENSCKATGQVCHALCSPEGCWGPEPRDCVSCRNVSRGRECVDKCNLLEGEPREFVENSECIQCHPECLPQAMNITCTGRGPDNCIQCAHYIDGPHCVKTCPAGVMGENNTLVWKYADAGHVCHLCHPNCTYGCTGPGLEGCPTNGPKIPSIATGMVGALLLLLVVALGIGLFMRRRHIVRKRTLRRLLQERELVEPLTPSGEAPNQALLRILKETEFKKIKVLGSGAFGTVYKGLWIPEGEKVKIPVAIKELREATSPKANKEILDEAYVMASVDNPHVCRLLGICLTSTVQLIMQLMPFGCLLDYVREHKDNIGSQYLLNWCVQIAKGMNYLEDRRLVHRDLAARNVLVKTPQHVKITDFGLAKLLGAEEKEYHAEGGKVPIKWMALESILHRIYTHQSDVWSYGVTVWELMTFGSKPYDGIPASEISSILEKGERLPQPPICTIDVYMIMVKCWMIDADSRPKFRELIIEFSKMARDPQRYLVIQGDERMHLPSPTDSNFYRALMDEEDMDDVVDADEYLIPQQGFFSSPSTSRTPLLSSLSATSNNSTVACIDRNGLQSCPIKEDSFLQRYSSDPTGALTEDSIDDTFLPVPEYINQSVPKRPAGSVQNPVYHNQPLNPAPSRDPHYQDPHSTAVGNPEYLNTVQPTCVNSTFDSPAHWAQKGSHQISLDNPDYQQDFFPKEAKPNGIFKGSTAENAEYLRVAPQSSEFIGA
Epidermal growth factor receptor (Homo sapiens), sequence (P00533 whole entry, the tested form may be a part): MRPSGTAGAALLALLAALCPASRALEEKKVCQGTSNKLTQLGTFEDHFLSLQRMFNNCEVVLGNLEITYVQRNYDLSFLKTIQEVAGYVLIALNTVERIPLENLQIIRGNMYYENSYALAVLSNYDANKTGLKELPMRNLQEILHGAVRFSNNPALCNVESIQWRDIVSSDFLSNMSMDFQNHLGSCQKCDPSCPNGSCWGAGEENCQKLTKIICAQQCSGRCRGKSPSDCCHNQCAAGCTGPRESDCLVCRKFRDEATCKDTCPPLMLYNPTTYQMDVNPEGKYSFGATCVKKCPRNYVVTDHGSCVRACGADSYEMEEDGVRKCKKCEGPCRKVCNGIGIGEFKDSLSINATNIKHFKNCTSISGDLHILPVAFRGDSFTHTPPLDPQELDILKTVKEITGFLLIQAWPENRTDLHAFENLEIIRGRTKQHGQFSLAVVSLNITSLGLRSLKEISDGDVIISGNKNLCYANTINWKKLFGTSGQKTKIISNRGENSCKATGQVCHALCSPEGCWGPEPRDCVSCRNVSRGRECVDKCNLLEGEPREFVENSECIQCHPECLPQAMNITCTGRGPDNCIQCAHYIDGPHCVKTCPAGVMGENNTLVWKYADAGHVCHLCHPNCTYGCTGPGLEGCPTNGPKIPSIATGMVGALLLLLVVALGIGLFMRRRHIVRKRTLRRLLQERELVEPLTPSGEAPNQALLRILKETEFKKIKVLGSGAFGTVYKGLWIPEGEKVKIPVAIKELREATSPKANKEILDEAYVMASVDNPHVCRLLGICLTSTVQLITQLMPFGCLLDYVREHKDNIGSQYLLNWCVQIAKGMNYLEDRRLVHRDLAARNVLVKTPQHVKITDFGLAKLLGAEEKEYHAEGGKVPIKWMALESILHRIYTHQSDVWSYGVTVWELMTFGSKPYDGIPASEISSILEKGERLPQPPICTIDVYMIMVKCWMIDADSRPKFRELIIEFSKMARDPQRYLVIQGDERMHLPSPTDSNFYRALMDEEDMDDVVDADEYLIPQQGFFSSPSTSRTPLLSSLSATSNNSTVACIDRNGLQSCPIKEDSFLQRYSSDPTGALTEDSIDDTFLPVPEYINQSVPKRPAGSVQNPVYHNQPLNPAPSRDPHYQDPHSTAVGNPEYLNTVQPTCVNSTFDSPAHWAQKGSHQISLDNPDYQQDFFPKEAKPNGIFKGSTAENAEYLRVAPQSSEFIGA
Epidermal growth factor receptor (Homo sapiens), P00533 [L858R,T790M], sequence (P00533 whole entry T790M/L858R, looked up, the tested form may be a part): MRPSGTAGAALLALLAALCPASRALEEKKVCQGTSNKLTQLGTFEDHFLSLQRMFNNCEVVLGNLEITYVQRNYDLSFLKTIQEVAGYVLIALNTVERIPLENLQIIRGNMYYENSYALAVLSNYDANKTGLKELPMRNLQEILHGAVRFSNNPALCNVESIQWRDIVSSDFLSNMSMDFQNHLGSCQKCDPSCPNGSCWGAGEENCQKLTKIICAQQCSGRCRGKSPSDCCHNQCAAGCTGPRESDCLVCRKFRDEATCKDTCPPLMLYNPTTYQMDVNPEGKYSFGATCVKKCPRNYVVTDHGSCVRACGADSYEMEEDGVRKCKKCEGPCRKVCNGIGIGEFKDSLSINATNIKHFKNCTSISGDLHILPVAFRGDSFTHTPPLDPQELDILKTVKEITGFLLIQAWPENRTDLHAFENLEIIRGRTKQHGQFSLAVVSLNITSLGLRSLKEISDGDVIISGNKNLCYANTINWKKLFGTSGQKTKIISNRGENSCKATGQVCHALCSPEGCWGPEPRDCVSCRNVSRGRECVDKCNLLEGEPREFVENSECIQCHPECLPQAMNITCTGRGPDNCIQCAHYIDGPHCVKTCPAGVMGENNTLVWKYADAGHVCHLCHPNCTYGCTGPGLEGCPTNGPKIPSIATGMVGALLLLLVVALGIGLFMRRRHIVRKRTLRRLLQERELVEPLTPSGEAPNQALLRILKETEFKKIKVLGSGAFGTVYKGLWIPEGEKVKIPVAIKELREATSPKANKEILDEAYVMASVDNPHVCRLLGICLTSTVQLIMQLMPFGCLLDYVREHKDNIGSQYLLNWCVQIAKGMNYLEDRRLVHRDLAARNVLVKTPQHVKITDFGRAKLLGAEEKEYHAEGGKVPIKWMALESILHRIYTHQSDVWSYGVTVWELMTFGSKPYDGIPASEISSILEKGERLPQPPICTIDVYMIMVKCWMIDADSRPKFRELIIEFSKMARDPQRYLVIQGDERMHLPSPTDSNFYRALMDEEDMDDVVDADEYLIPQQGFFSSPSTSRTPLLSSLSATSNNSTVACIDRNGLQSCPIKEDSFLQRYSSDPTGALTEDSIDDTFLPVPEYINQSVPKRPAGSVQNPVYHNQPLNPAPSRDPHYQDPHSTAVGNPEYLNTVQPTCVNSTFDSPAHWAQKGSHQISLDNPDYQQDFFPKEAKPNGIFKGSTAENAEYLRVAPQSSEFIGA

SMILES	IC50 [1] [µM]	GI50 at 72 h [2] [µM]	GI50 [3] [nM]	GI50 [4] [nM]	GI50 [5] [nM]	GI50 [6] [nM]	GI50 [7] [µM]	GI50 [8] [µM]	GI50 [9] [µM]	GI50 [10] [µM]	GI50 [11] [µM]	GI50 [12] [µM]	GI50 [13] [µM]	GI50 [14] [µM]	GI50 [15] [µM]	GI50 [16] [µM]	GI50 [17] [nM]	GI50 [18] [µM]	GI50 [19] [nM]	GI50 [20] [nM]	other results
CCC(=O)Nc1cc(-n2c(=O)ccc3cnc4ccc(-n5cccn5)cc4c32)ccc1C	> 10	> 10	> 10000	> 10000	> 10000	> 10000	> 10	> 10	> 10	> 10	> 10	> 10	> 10	> 10	> 10	> 10	> 10000	> 10	> 10000	> 10000	GI50 [21]: > 10000 nM; GI50 [22]: > 10000 nM; GI50 [23]: > 10 µM; GI50 [24]: > 10 µM; GI50 [25]: > 10 µM; GI50 [26]: > 10 µM; GI50 [27]: > 10 µM; GI50 [28]: > 10000 nM; GI50 [29]: > 10 µM; GI50 [30]: > 10000 nM; GI50 [31]: > 10000 nM
C=CC(=O)Nc1cc(-n2c(=O)ccc3cnc4ccc(-n5cccn5)cc4c32)ccc1C	> 10	> 10	2660	918	1590	2670	> 10	5.1	> 10	5.57	> 10	> 10	> 10	7.9	3.5	4.5	1170	8.8	1500	1400	GI50 [21]: 1800 nM; GI50 [22]: 2500 nM; GI50 [23]: 3.7 µM; GI50 [24]: 3.8 µM; GI50 [25]: 4.3 µM; GI50 [26]: 4.9 µM; GI50 [27]: > 10 µM; GI50 [28]: 1600 nM; GI50 [29]: 10.3 µM; GI50 [30]: 2400 nM; GI50 [31]: 2900 nM
